Test results reported in patent US9630958B2, “Triazine compounds” (Sphaera Pharma Pte. Ltd., priority 2012, dated 2017).
pIC50: −log10 of the molar value.

How the values were obtained:
Recombinant mTOR (FRAP1) = biological target: T1, Recombinant mTOR (FRAP1) (Homo sapiens, UniProt P42345); test: mTOR in vitro kinase assay (TR-FRET, phosphorylation of GFP-4E-BP1); type: biochemical; details: for pIC50: 8 μM ATP, 400 nM GFP-4E-BP1; for inhibition at 1 µM: 1 uM compound, read-out: mTOR % Inhib@1 uM
T1 construct: purchased Invitrogen
T1 sequence (P42345 1360-2549 limits assumed): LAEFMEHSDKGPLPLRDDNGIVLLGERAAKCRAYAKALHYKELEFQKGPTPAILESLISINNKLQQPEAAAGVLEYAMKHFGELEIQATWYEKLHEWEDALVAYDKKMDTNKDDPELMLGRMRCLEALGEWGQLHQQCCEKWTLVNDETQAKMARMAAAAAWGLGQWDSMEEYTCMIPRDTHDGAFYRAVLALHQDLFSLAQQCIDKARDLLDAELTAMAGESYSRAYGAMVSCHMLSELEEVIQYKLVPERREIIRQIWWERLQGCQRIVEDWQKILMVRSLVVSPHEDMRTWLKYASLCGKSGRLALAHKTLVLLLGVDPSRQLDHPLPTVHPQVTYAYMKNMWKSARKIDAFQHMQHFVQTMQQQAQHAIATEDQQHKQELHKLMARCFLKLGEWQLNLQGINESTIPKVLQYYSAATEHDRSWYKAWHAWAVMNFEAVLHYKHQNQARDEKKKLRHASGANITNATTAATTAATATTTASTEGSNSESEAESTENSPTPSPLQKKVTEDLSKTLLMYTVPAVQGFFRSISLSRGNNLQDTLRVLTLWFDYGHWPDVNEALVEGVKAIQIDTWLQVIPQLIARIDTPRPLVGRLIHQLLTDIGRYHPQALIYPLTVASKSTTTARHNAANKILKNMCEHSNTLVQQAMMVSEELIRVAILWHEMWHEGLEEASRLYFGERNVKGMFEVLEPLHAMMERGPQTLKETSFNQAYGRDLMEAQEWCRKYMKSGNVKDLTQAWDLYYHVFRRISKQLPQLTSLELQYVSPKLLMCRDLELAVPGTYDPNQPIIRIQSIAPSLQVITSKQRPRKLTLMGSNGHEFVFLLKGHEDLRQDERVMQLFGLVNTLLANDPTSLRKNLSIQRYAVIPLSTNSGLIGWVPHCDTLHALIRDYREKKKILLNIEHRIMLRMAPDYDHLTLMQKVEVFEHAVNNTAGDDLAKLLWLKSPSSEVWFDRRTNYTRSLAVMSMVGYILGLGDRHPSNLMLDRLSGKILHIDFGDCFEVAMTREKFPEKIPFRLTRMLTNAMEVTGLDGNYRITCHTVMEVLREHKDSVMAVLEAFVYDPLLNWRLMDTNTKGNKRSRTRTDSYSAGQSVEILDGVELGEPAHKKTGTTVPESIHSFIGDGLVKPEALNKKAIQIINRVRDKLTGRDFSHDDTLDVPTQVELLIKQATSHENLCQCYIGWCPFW
Protocol: Compounds were evaluated for mTOR activity using an in vitro kinase assay.
mTOR activity is measured in vitro by determining the level of phosphorylation of the protein substrate 4EBP-1. The phosphorylation of GFP-4E-BP1 at threonine residue is recognized by Ab Tb-Anti-p4EBP1, which results in time resolved fluorescence energy transfer (TR-FRET) between GFP and Terbium in the Ab-Protein complex.
Recombinant mTOR (FRAP1), Kinase reaction buffer, GFP-4E-BP1 and LanthaScreen Tb-anti-4E-BP1 (pThr46), TR FRET dilution buffer, Kinase Quench Buffer were obtained from Invitrogen.
Kinase reactions were performed in 10 μl volume in Corning white 384 well plates. […] The reaction was initiated by the addition of substrate (GFP-4E-BP1) and ATP at a final conc. of 400 nM and 8 μM ATP in the reaction respectively. The kinase reaction was allowed to proceed for 1 hour at room temperature before a 10 μL preparation of kinase quench buffer and Tb-labeled Antibody in TR-FRET dilution buffer was added. The final concentration of the antibody in the assay well is 2 nM and the final concentration of EDTA is 10 mM. The plate was incubated at room temperature for 1 h.
(§1) FRET signal was read in Envision Multilabel Reader with the following filters:
Excitation-330 nm and Emission 486 nm (donor) and 520 nm (acceptor).
TR FRET Ratio (Fluorescence 520 nm/Fluorescence 486 nm) was plotted against the concentration of inhibitor and data was fit to Non Linear Regression curve fit (sigmoidal dose response curve with variable slope-four parameters) using Graph Pad Prism 5.

[1] = biological target: T2, PI3 Kinase alpha (p110 alpha/p85 alpha) (Homo sapiens, UniProt P42336); test: PI3K TR-FRET assay (Transcreener ADP2); type: biochemical; details: for inhibition at 1 µM: 1 uM compound, read-out: PI3K % Inhib@1 uM; for pIC50: PI3K alpha, 1 μM ATP, 50 μM PIP2
T2 construct: purchased Invitrogen
T2 sequence (P42336 whole entry): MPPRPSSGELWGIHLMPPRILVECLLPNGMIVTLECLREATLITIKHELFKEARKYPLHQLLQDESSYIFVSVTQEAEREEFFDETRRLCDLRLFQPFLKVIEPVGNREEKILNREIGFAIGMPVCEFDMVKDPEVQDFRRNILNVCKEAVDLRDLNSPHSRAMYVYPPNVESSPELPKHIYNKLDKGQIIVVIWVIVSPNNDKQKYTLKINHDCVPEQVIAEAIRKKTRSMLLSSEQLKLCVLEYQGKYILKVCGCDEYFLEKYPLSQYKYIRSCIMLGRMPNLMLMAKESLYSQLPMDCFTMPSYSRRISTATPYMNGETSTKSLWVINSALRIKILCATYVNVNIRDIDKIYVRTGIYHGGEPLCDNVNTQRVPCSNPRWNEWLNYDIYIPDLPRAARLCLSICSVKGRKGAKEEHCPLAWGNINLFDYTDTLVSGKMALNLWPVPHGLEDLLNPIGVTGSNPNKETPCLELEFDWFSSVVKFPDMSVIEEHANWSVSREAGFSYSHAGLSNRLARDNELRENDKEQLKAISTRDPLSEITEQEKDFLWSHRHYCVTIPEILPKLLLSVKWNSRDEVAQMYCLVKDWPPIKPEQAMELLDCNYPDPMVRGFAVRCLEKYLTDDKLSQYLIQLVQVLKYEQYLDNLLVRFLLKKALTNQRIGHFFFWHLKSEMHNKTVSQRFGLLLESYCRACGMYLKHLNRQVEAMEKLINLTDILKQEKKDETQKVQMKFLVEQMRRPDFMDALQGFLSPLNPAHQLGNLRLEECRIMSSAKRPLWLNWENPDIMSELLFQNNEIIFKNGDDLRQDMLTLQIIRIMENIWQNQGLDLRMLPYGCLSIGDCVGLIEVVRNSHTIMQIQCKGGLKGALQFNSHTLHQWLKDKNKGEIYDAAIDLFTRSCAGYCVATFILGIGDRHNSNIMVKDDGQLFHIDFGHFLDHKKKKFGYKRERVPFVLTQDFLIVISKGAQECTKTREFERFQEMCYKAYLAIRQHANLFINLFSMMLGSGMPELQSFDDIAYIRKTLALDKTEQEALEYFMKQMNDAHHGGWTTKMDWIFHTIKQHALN
T2 sequence (P27986 whole entry partner): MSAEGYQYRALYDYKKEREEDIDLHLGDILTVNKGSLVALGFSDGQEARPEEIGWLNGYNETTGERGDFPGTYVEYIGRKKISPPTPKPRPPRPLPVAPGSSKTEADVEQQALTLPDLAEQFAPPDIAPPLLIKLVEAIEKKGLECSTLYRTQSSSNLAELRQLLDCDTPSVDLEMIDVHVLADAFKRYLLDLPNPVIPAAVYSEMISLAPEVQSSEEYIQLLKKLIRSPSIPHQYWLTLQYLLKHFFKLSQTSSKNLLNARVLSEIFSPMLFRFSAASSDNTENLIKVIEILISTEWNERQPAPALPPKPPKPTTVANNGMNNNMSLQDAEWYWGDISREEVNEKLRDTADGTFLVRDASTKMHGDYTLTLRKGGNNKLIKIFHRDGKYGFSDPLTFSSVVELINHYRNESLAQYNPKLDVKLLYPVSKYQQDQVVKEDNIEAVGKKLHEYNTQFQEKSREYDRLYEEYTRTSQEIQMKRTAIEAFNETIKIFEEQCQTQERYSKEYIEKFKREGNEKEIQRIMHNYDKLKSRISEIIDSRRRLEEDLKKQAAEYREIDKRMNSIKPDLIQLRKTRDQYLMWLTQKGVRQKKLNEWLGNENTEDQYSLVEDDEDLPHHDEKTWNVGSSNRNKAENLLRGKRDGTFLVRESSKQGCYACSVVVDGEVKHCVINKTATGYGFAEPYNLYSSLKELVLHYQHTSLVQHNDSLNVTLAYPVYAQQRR
Protocol: Enzymatic activity of PI3K alpha was measured using Time resolved Fluorescence resonance energy transfer (TR-FRET) assay. This assay utilizes ADP detection as a means to screen inhibitor potency of compounds. The Transcreener ADP2 TR-FRET Red Assay is a competitive immunoassay for ADP with a far-red, TR-FRET readout and it has been used for this purpose. The assay can be used for any enzyme class that produces ADP (Kinases, ATPases). It consists of ADP HiLyte647 Tracer, ADP^2 Antibody-Tb conjugate (800 nM), stop & detect buffer, 5 mM ATP, 5 mM ADP. The ADP HiLyte647 Tracer is bound to an ADP^2 Antibody-Tb conjugate. The excitation of the terbium complex in the UV range results in energy transfer to the tracer and emission at a higher wavelength after a time delay ADP produced by the target enzyme displaces the tracer which causes decrease in TR-FRET.
The reaction buffer used for the assay was 50 mM HEPES, pH 7.4.3 mM MgCl2, 0.05% CHAPS, 50 mM NaCl, 2 mM DTT, 1 mM EGTA. PI3 Kinase alpha (p110 alpha/p85 alpha) and PIP2 Substrate (diC8,) were procured from Invitrogen and Echelon respectively.
Kinase reactions were performed in 10 μl volume in Corning white 384 well plates. […] Reaction was initiated by the addition of substrate (PIP2) and ATP at final conc. of 50 μM and 1 μM ATP in the reaction respectively. Kinase reactions were allowed to proceed for 1 hour at room temperature before a 10 μL preparation of Transcreener ADP detection mix was added. Plate was incubated at room temperature for 1 hr. ADP-ATP standard curves were also prepared.
as §1
Excitation-330 nm and Emission 615 nm (donor) and 665 nm (acceptor). TR FRET Ratio (Fluorescence 665 nm/Fluorescence 615 nm) was converted to amount of product formed using the standard curve generated. Percentage inhibition was calculated and plotted against the concentration of inhibitor and data was fit to Non Linear Regression curve fit (sigmoidal dose response curve with variable slope-four parameters) using Graph pad prism 5 and IC50 was calculated for the compound.

SMILES | pIC50 (Recombinant mTOR (FRAP1)) | inhibition at 1 µM [1] [%] | pIC50 [1] | inhibition at 1 µM (Recombinant mTOR (FRAP1)) [%]
C[C@H]1CN(c2nc(Oc3ccc(C(=O)N(C)C)cc3F)nc(-c3ccc4[nH]ncc4c3)n2)[C@@H](C)CO1 [Compound 10063, 4-((4-((25,3S)-2,5-dimethylmorpholino)-6-(1H-indazol-5-yl)-1,3,5-triazin-2-yl)oxy)-3-fluoro-N,N-dimethylbenzamide] | > 6.00 | < 50 |  | 
C[C@@H]1CN(c2nc(Oc3ccc(C(=O)N(C)C)cc3F)nc(-c3ccc4[nH]ncc4c3)n2)[C@@H](C)CO1 [Compound 10064, 4-((4-((2R,3S)-2,5-dimethylmorpholino)-6-(1H-indazol-5-yl)-1,3,5-triazin-2-yl)oxy)3-fluoro-N,N-dimethylbenzamide] | > 6.00 | < 50 |  | 
CN(C)C(=O)c1ccc(Oc2nc(-c3cnc(N)cc3C(F)(F)F)nc(N3CCOCC3)n2)c(F)c1 [Compound 10065, 4-((4-(6-Amino-4-(trifluoromethyl)pyridine-3-yl)-6-morpholino-1,3,5-triazin-2-yl)oxy)-3-fluoro-N,N-dimethylbenzamide] | > 6.00 |  | > 6.00 | 
C[C@H]1COCCN1c1nc(Oc2ccc(C(=O)N(C)C)cc2)nc(-c2cnc(N)cc2C(F)(F)F)n1 [Compound 10066, (S)-4-((4-(6-Amino-4-(trifluoromethyl)pyridine-3-yl)-6-(3-methylmorpholino)-1,3,5-triazin-2-yl)oxy)-N,N-dimethylbenzamide] | > 6.00 |  | > 6.00 | 
C[C@H]1COCCN1c1nc(Oc2ccc(C(=O)N(C)C)cc2F)nc(-c2cnc(N)cc2C(F)(F)F)n1 [Compound 10067, (S)-4-((4-(6-Amino-4-(trifluoromethyl)pyridine-3-yl)-6-(3-methylmorpholino)-1,3,5-triazin-2-yl)oxy)-3-fluoro-N,N-dimethylbenzamide] | > 6.00 |  | > 6.00 | 
C[C@@H]1CN(c2nc(Oc3ccc(C(=O)N(C)C)cc3F)nc(-c3cnc(N)s3)n2)C[C@H](C)O1 [Compound 10069] | > 6.00 |  | < 6.00 | 
CN(C)C(=O)c1ccc(Oc2nc(-c3cnc(N)s3)nc(N3CCNC(=O)CC3)n2)cc1 [Compound 10071, 4-((4-(2-Aminothiazol-5-yl)-6-(5-oxo-1,4-diazepan-1-yl)-1,3,5-triazin-2-yl)oxy)-N,N-dimethylbenzamide] |  | < 50 |  | < 50
CN(C)C(=O)c1ccc(Oc2nc(-c3cnc(N)s3)nc(N3CCNC(=O)C3)n2)cc1 [Compound 10072, 4-((4-(2-Aminothiazol-5-yl)-6-(3-oxopiperazin-1-yl)-1,3,5-triazin-2-yl)oxy)-N,N-dimethylbenzamide] |  | < 50 |  | < 50
C[C@@H]1CN(c2nc(Oc3ccc(C(=O)N(C)C)cc3)nc(-c3cnc(N)s3)n2)CCO1 [Compound 10073, (R)-4-((4-(2-Aminothiazol-5-yl)-6-(2-methylmorpholino)-1,3,5-triazin-2-yl)oxy)-N,N-dimethylbenzamide] | > 6.00 | > 50 | > 6.00 | > 50
CN(C)C(=O)c1ccc(Oc2nc(-c3cnc(N)s3)nc(N3CC4CCC(C3)O4)n2)cc1 [Compound 10075, 4-((4-(2-Aminothiazol-5-yl)-6-(8-oxa-3-azabicyclo[3.2.1]octan-3-yl)-1,3,5-triazin-2-yl)oxy)-N,N-dimethylbenzamide] | > 6.00 | < 50 | < 6.00 | > 50
C[C@@H]1CN(c2nc(Oc3ccc(C(=O)N(C)C)cc3)nc(-c3cnc(N)s3)n2)[C@@H](C)CO1 [Compound 10076, 4-((4-(2-Aminothiazol-5-yl)-6-((2R,5S)-2,5-dimethylmorpholino)-1,3,5-triazin-2-yl)oxy)-N,N-dimethylbenzamide] | > 6.00 | < 50 | < 6.00 | > 50
C[C@H]1CN(c2nc(Oc3ccc(C(=O)N(C)C)cc3)nc(-c3cnc(N)s3)n2)[C@@H](C)CO1 [Compound 10077, 4-((4-(2-Aminothiazol-5-yl)-6-((2S,5S)-2,5-dimethylmorpholino)-1,3,5-triazin-2-yl)oxy)-N,N-dimethylbenzamide] | > 6.00 | > 50 | > 6.00 | 
C[C@H]1COC[C@H](C)N1c1nc(Oc2ccc(C(=O)N(C)C)cc2)nc(-c2cnc(N)s2)n1 [Compound 10078, 4-((4-(2-Aminothiazol-5-yl)-6-((3S,5S)-3,5-dimethylmorpholino)-1,3,5-triazin-2-yl)oxy)-N,N-dimethybenzamide] | > 6.00 | > 50 | > 6.00 | > 50
C[C@@H]1COC[C@H](C)N1c1nc(Oc2ccc(C(=O)N(C)C)cc2)nc(-c2cnc(N)s2)n1 [Compound 10079, 4-((4-(2-Aminothiazol-5-yl)-6-((3S,5R)-3,5-dimethylmorpholino)-1,3,5-triazin-2-yl)oxy)-N,N-dimethybenzamide] | > 6.00 | < 50 | < 6.00 | 
CC[C@H]1COCCN1c1nc(Oc2ccc(C(=O)N(C)C)cc2)nc(-c2cnc(N)s2)n1 [Compound 10081, (S)-4-((4-(2-Aminothiazol-5-yl)-6-(3-ethylmorpholino)-1,3,5-triazin-2-yl)oxy)-N,N-dimethylbenzamide] | > 6.00 | > 50 | > 6.00 | > 50
CC[C@@H]1COCCN1c1nc(Oc2ccc(C(=O)N(C)C)cc2)nc(-c2cnc(N)s2)n1 [Compound 10082, (R)-4-((4-(2-Aminothiazol-5-yl)-6-(3-ethylmorpholino)-1,3,5-triazin-2-yl)oxy)-N,N-dimethylbenzamide] |  | < 50 |  | < 50
CNC(=O)Nc1ncc(-c2nc(Oc3ccc(C(=O)N(C)C)cc3)nc(N3CCOC[C@@H]3C)n2)s1 [Compound 10091, (S)-N,N-dimethyl-4-((4-(3-methylmorpholino)-6-(2-(3-methylureido)thiazol-5-yl)-1,3,5-triazin-2-yl)oxy)benzamide] | > 6.00 |  | > 6.00 | > 50
C[C@H]1COCCN1c1nc(Oc2ccc(C(=O)N(C)C)cc2)nc(-c2cnc(NC(=O)Nc3cccnc3)s2)n1 [Compound 10092] | > 6.00 | < 50 | > 6.00 | 
C[C@H]1COCCN1c1nc(Oc2ccc(C(=O)N(C)C)cc2)nc(-c2cnc(NC(=O)NC3CC3)s2)n1 [Compound 10093] | > 6.00 | > 50 | > 6.00 | 
CN(C)C(=O)c1ccc(Oc2nc(-c3ccc(N)nc3)nc(N3CC4CCC(C3)O4)n2)c(F)c1 [Compound 10095] | > 6.00 | < 50 | < 6.00 | 
C[C@H]1COCCN1c1nc(Oc2ccc(C(=O)N(C)C)cc2)nc(-c2ccc(N)nc2)n1 [Compound 10096, (S)-4-((4-(6-Aminopyridin-3-yl)-6-(3-methylmorpholino)-1,3,5-triazin-2-yl)oxy)-N,N-dimethylbenzamide] | > 6.00 |  | > 6.00 | > 50
C[C@H]1CN(c2nc(Oc3ccc(C(=O)N(C)C)cc3F)nc(-c3ccc(N)nc3)n2)[C@@H](C)CO1 [Compound 10097, 4-((4-(6-Aminopyridin-3-yl)-6-((2S,5S)-2,5-dimethylmorpholino)-1,3,5-triazin-2-yl)oxy)-3-fluoro-N,N-dimethylbenzamide] | > 6.00 | > 50 | > 6.00 | 
